Measurements as given in US6953801B2, “Melanin concentrating hormone receptor ligands: substituted 1-benzyl-4-aryl piperazine analogues” (Neurogen Corporation, priority 2001, dated 2005).

Structure (SMILES): COc1cc(N2CCN([C@H](C)c3ccc(OC)c(OC)c3)CC2)ccc1Cl [compound 4, (R)-1-(4-Chloro-3-Methoxy-Phenyl)-4-[1-(3,4-Dimethoxy-Phenyl)-Ethyl]-Piperazine]
- melting point: 172 to 176 °C
